Patent US10160743B2, “Sulphamoylthiophenamide derivatives and the use thereof as medicaments for the treatment of hepatitis B” (Janssen Sciences Ireland UC, priority 2013, dated 2018)

What was measured:
[1] = test system: HBV; assay: Anti-HBV activity, HepG2.117 cell line (Tet-off), intracellular HBV DNA by realtime PCR; format: cell-based, Hepatitis B virus; conditions: HepG2.117 cells, 3 days of treatment
[2] = test system: HepG2 cells; assay: Cytotoxicity in HepG2 cells, Resazurin assay; format: cell-based; conditions: incubated for 4 days, Resazurin viability
[3] = test system: HBV; assay: Anti-HBV activity, HepG2.2.15 cell line, HBV DNA from secreted virions by realtime PCR; format: cell-based, Hepatitis B virus; conditions: HepG2.2.15 cells, 6 days of treatment
[4] = Cytotoxicity in HepG2 cells, Resazurin assay; format: cell-based; conditions: human, incubated for 4 days, Resazurin viability
[5] = Hepatitis B virus, HepG2.117, 72 h
[6] = Hepatitis B virus, HepG2.2.15, 144 h

Compound | EC50 [1] [nM] | CC50 [2] [nM] | EC50 [3] [nM] | EC50 [1, 5] [nM] | CC50 at 4 days [4] [nM] | EC50 [3, 6] [nM]
Cc1cc(NC(=O)c2cc(S(=O)(=O)NC3(C)CCOC3)sc2C)ccc1F (racemic) [Compound 16b, N-(4-fluoro-3-methyl-phenyl)-2-methyl-5-[(3-methyltetrahydrofuran-3yl)sulfamoyl]thiophene-3-carboxamide] | 26 | > 25000 | 28 |  |  | 
Cc1sc(S(=O)(=O)N[C@H](C)C(F)(F)F)cc1C(=O)Nc1ccc(F)c(F)c1 [Compound 56, N-(3,4-difluorophenyl)-2-methyl-5-[[(1R)-2,2,2-trifluoro-1-methyl-ethyl]sulfamoyl]thiophene-3-carboxamide] |  |  |  | 70 | 14900 | 130
Cc1sc(S(=O)(=O)NC2(C(F)(F)F)CCOC2)cc1C(=O)Nc1cccc(C(F)(F)F)c1 (racemic) [Compound 41, 2-methyl-N-[3-(trifluoromethyl)phenyl]-5-[[3-(trifluoromethyl)tetrahydrofuran-3-yl]sulfamoyl]thiophene-3-carboxamide] |  |  |  | > 1000 | > 25000 | 550
Cc1cc(NC(=O)c2cc(S(=O)(=O)N[C@H]3CCOC3)sc2C(F)(F)F)ccc1F [Compound 5, N-(4-fluoro-3-methyl-phenyl)-5-[[(3S)-tetrahydrofuran-3-yl]sulfamoyl]-2-(trifluoromethyl)thiophene-3-carboxamide] |  |  |  | 1180 | > 25000 | 1670
Cc1sc(S(=O)(=O)NC2(C(F)(F)F)CC2)cc1C(=O)Nc1ccc(F)c(F)c1 [Compound 34, N-(3,4-Difluorophenyl)-2-methyl-5-{[1-(trifluoromethyl)cyclopropyl]-sulfamoyl}thiophene-3-carboxamide] |  |  |  | 130 | 17700 | 100
Cc1sc(S(=O)(=O)N[C@H](C)C(F)(F)F)cc1C(=O)Nc1ccc(F)c(Cl)c1 [Compound 38, N-(3-Chloro-4-fluorophenyl)-2-methyl-5-{[(1R)-2,2,2-trifluoro-1-methylethyl]sulfamoyl}thiophene-3-carboxamide] |  |  |  | 80 | 14400 | 40
Cc1sc(S(=O)(=O)NC(C)(C)C(F)(F)F)cc1C(=O)Nc1ccc(F)c(C#N)c1 [Compound 45, N-(3-cyano-4-fluoro-phenyl)-2-methyl-5-[(2,2,2-trifluoro-1,1-dimethyl-ethyl)sulfamoyl]thiophene-3-carboxamide] |  |  |  | 420 | > 25000 | 280
Cc1cc(NC(=O)c2ccc(S(=O)(=O)N[C@H]3CCOC3)s2)ccc1F [Compound 13, N-(4-fluoro-3-methyl-phenyl)-5-[[(3S)-tetrahydrofuran-3-yl]-sulfamoyl]thiophene-2-carboxamide] |  |  |  | 940 | > 25000 | 1700
Cc1cc(NC(=O)c2csc(S(=O)(=O)N[C@H]3CCOC3)c2)ccc1F [Compound 1, N-(4-fluoro-3-methyl-phenyl)-5-[[(3S)-tetrahydrofuran-3-yl]sulfamoyl]thiophene-3-carboxamide] |  |  |  | 320 | > 25000 | 170
Cc1cc(NC(=O)c2cc(S(=O)(=O)NC(C)(C)C(N)=O)sc2C)ccc1F [Compound 33, 5-[(2-Amino-1,1-dimethyl-2-oxoethyl)sulfamoyl]-N-(4-fluoro-3-methylphenyl)-2-methylthiophene-3-carboxamide] |  |  |  | 130 | > 25000 | 140
Cc1sc(S(=O)(=O)NC2(C(F)(F)F)CCOC2)cc1C(=O)Nc1ccc(F)c(F)c1 (stereo not drawn) [Compound 49, N-(3,4-difluorophenyl)-2-methyl-5-[[3-(trifluoromethyl)tetrahydrofuran-3-yl]sulfamoyl]thiophene-3-carboxamide] |  |  |  | 270 | > 25000 | 290
Cc1sc(S(=O)(=O)NC2(C)COC2)cc1C(=O)Nc1ccc(F)c(Cl)c1 [Compound 28, N-(3-Chloro-4-fluorophenyl)-2-methyl-5-[(3-methyloxetan-3-yl)-sulfamoyl]thiophene-3-carboxamide] |  |  |  | 41 | > 25000 | 34
Cc1sc(S(=O)(=O)NC(C)(C)C)cc1C(=O)Nc1ccc(F)c(C#N)c1 [Compound 24, 5-(tert-Butylsulfamoyl)-N-(3-cyano-4-fluorophenyl)-2-methylthiophene-3-carboxamide] |  |  |  | 150 | > 25000 | 120
Cc1cc(NC(=O)c2cc(S(=O)(=O)N[C@H](C)C(F)(F)F)sc2C)ccc1F [Compound 39, N-(4-Fluoro-3-methylphenyl)-2-methyl-5-{[(1R)-2,2,2-trifluoro-1-methylethyl]sulfamoyl}thiophene-3-carboxamide] |  |  |  | 60 | > 25000 | 70
Cc1sc(S(=O)(=O)NC2(C)COC2)cc1C(=O)Nc1cccc(C(F)(F)F)c1 [Compound 22, 2-methyl-5-[(3-methyloxetan-3-yl)sulfamoyl]-N-[3-(trifluoromethyl)-phenyl]thiophene-3-carboxamide] |  |  |  | 230 | > 25000 | 250
Cc1sc(S(=O)(=O)NC(C)(C)C)cc1C(=O)Nc1ccc(F)c(Cl)c1 [Compound 26, 5-(tert-Butylsulfamoyl)-N-(3-chloro-4-fluorophenyl)-2-methylthiophene-3-carboxamide] |  |  |  | 51 | 11500 | 170
Cc1sc(S(=O)(=O)NC(C)(C)C(F)(F)F)cc1C(=O)Nc1ccc(F)c(F)c1 [Compound 50, N-(3,4-difluorophenyl)-2-methyl-5-[(2,2,2-trifluoro-1,1-dimethyl-ethyl)sulfamoyl]thiophene-3-carboxamide] |  |  |  | 190 | > 25000 | 140
Cc1sc(S(=O)(=O)NC(C)(C)C(F)(F)F)cc1C(=O)Nc1cccc(C(F)(F)F)c1 [Compound 42, 2-methyl-5-[(2,2,2-trifluoro-1,1-dimethyl-ethyl)sulfamoyl]-N-[3-(trifluoromethyl)phenyl]thiophene-3-carboxamide] |  |  |  | > 1000 | 16900 | 530
Cc1sc(S(=O)(=O)NC(C)(C)C)cc1C(=O)Nc1ccc(F)c(Br)c1 [Compound 27, N-(3-Bromo-4-fluorophenyl)-5-(tert-butylsulfamoyl)-2-methylthiophene-3-carboxamide] |  |  |  | 90 | 12200 | 130
Cc1cc(NC(=O)c2cc(S(=O)(=O)N[C@H]3CCOC3)sc2Br)ccc1F [Compound 2, 2-bromo-N-(4-fluoro-3-methyl-phenyl)-5-[[(3S)-tetrahydrofuran-3-yl]-sulfamoyl]thiophene-3-carboxamide] |  |  |  | 1900 | > 25000 | 810
Cc1cc(NC(=O)c2cc(S(=O)(=O)N[C@H]3CCOC3)sc2C)ccc1F [Compound 7, N-(4-fluoro-3-methyl-phenyl)-2-methyl-5-[[(3S)-tetrahydrofuran-3-yl]-sulfamoyl]thiophene-3-carboxamide] |  |  |  | 160 | > 25000 | 170
Cc1cc(NC(=O)c2cc(S(=O)(=O)N[C@H]3CCOC3)sc2Cl)ccc1F [Compound 4, 2-chloro-N-(4-fluoro-3-methyl-phenyl)-5-[[(3S)-tetrahydrofuran-3-yl]-sulfamoyl]thiophene-3-carboxamide] |  |  |  | 560 | > 25000 | 570
Cc1sc(S(=O)(=O)NC2(C(F)(F)F)CCOC2)cc1C(=O)Nc1ccc(F)c(C#N)c1 (racemic) [Compound 54, N-(3-cyano-4-fluoro-phenyl)-2-methyl-5-[[3-(trifluoromethyl)tetrahydrofuran-3-yl]sulfamoyl]thiophene-3-carboxamide] |  |  |  | 100 | > 25000 | 180
Cc1cc(NC(=O)c2cc(S(=O)(=O)NC3(C)CCOC3)sc2C)ccc1F (racemic) [Compound 16, N-(4-fluoro-3-methyl-phenyl)-2-methyl-5-[(3-methyltetrahydrofuran-3-yl)sulfamoyl]thiophene-3-carboxamide] | 48 |  | 54 |  | > 25000 | 
Cc1cc(NC(=O)c2cc(S(=O)(=O)NC3(C)CCOC3)sc2C)ccc1F (racemic) [Compound 16a, N-(4-fluoro-3-methyl-phenyl)-2-methyl-5-[(3-methyltetrahydrofuran-3yl)sulfamoyl]thiophene-3-carboxamide] | 87 | > 25000 | 75 |  |  | 
Cc1cc(NC(=O)c2cc(S(=O)(=O)N[C@H]3CCOC3)c(C)s2)ccc1F [Compound 9, N-(4-fluoro-3-methyl-phenyl)-5-methyl-4-[[(3S)-tetrahydrofuran-3-yl]-sulfamoyl]thiophene-2-carboxamide] |  |  |  | 1100 | > 25000 | 790
Cc1sc(S(=O)(=O)N[C@H](C)C(C)(F)F)cc1C(=O)Nc1ccc(F)c(F)c1 [Compound 55, 5-[[(1R)-2,2-difluoro-1-methyl-propyl]sulfamoyl]-N-(3,4-difluorophenyl)-2-methyl-thiophene-3-carboxamide] |  |  |  | 90 | 14600 | 32
Cc1sc(S(=O)(=O)N[C@H](C)C(F)(F)F)cc1C(=O)Nc1ccc(F)c(Br)c1 [Compound 48, N-(3-bromo-4-fluoro-phenyl)-2-methyl-5-[[(1R)-2,2,2-trifluoro-1-methyl-ethyl]sulfamoyl]thiophene-3-carboxamide] |  |  |  | 280 | 7730 | 160
